SMILES strings stand for the structures. Some results are limits rather than exact numbers.

The target in assay [1] is T1, Recombinant full-length human IDO1 (Homo sapiens, UniProt P14902).
T1 construct: Recombinant full-length human IDO1 with a N-terminal hexahistidine tag; hexahistidine (His6) (N); made in house; host or cells: E. coli
The assay is described as follows: IDO1 enzymatic assay (NFK quantified by LCMS). The note with it: 2 nM enzyme, 5 μM L-tryptophan, pH6.5, 30 minutes pre-incubation at RT; mean values when measured multiple times; read-out: hIDO activity (IC50 in nM). In kind it is biochemical. In a few lines: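 IC50 comes from four-parameter logistic fits of duplicate data, with NFK quantified by LCMS and normalized to L-Trp-(indole-d5). Compound (0.5 nM–10 μM) was preincubated 30 min at RT with 2 nM E. coli-expressed IDO1 before a 30 min reaction with 5 μM tryptophan in pH 6.5 buffer containing ascorbate and methylene blue.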

The target in assay [2] is T2, Recombinant human TDO comprising amino acids 19-407 (Homo sapiens, UniProt P48775).
T2 construct: Recombinant human TDO comprising amino acids 19-407 with a N-terminal hexahistidine tag; hexahistidine (His6) (N); made in house; host or cells: E. coli
T2 sequence (P48775 19-406 limits assumed): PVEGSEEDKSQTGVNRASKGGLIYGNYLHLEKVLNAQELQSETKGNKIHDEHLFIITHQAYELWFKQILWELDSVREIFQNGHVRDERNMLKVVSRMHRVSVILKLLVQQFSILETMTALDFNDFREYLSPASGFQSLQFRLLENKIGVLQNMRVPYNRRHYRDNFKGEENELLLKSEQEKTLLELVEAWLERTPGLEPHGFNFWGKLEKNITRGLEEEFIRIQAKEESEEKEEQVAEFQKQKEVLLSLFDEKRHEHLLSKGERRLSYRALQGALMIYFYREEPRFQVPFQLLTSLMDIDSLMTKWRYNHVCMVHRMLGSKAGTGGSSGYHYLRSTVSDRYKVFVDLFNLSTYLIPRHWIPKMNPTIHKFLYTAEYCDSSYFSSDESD
The assay is described as follows: TDO2 enzymatic assay (NFK quantified by LCMS). Format: biochemical. The note with it: 15 nM enzyme, 200 μM L-tryptophan, pH7, 30 minutes pre-incubation at RT; mean values when measured multiple times; read-out: hTDO activity (IC50 in nM). The method, boiled down: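 NFK formed over 30 min at RT from 200 μM L-tryptophan was measured by LCMS, normalized to d5-tryptophan, after compound (0.5 nM–10 μM, duplicates, 0.6% DMSO) was preincubated 30 min with 15 nM recombinant His-tagged TDO 19-407 in phosphate buffer pH 7. IC50 from four-parameter logistic fit; repeats averaged.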

T1 sequence (P14902 whole entry): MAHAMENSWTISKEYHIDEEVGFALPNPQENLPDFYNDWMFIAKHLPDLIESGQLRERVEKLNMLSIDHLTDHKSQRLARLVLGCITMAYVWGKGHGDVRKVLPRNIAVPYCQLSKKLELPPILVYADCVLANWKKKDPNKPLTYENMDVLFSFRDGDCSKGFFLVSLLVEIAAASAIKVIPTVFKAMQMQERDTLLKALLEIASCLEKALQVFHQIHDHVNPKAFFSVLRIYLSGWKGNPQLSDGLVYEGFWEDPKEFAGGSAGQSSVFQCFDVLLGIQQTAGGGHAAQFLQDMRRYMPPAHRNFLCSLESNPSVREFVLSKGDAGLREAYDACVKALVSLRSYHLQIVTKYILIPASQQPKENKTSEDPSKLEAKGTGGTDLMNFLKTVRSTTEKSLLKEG

Turning to `OC(c1cn(-c2ccccc2C(F)(F)F)nn1)c1c(C2CC2)sc2cncn12` (racemic) [Example 29, rac-(2-Cyclopropyl-imidazo[5,1-b]thiazol-3-yl)-[1-(2-trifluoromethyl-phenyl)-1H-[1,2,3]triazol-4-yl]-methanol], the IC50 (in general, the concentration needed to halve the response being measured) was 163 nM in assay [1] and greater than 10200 nM in assay [2].

In the case of `CCOc1ncc(-n2cc(C(O)c3c(C4CC4)sc4cncn34)nn2)cc1Cl` (racemic) [Example 74, rac-[1-(5-Chloro-6-ethoxy-pyridin-3-yl)-1H-[1,2,3]triazol-4-yl]-(2-cyclopropyl-imidazo[5,1-b]thiazol-3-yl)-methanol], the values for the IC50 in assay [1] and in assay [2] were 24.3 nM and greater than 10200 nM, respectively.

With `CC(C)(O)CCOc1ccc(-n2cc([C@H](O)c3c(-c4ccccc4)sc4cncn34)nn2)cc1Cl` [Example 268a, 4-(2-Chloro-4-{4-[(R)-hydroxy-(2-phenyl-imidazo[5,1-b]thiazol-3-yl)-methyl]-[1,2,3]triazol-1-yl}-phenoxy)-2-methyl-butan-2-ol], the values for the half-inhibitory concentration (IC50) in assay [1] and in assay [2] were 123 nM and 10000 nM, respectively.

For `Oc1ccc(-n2cc(C(O)c3c(C4CC4)sc4cncn34)nn2)cc1C(F)(F)F` (racemic) [Example 209, rac-4-{4-[(2-Cyclopropyl-imidazo[5,1-b]thiazol-3-yl)-hydroxy-methyl]-[1,2,3]triazol-1-yl}-2-trifluoromethyl-phenol], the IC50 in assay [1] is 22.1 nM; in assay [2] it was greater than 10200 nM.

Regarding `O[C@@H](c1cn(-c2ccccc2)nn1)c1c(C2CC2)sc2cncn12` [Example 2a, (R)-(2-Cyclopropyl-imidazo[5,1-b]thiazol-3-yl)-(1-phenyl-1H-[1,2,3]triazol-4-yl)-methanol], the figures for the IC50 in assay [1] and in assay [2] were 11.7 nM and greater than 10200 nM, respectively.

Regarding `COc1ccc(-n2cc(C(O)c3c(-c4cnn(C)c4)sc4cncn34)nn2)cc1` (racemic) [Example 273, rac-[1-(4-Methoxy-phenyl)-1H-[1,2,3]triazol-4-yl]-[2-(1-methyl-1H-pyrazol-4-yl)-imidazo[5,1-b]thiazol-3-yl]-methanol], the IC50 in assay [1] is 43.6 nM; in assay [2] it was greater than 10200 nM.

In the case of `OC(c1ccc(-c2ccc3[nH]ccc3c2)s1)c1c(C2CC2)sc2cncn12` (racemic) [Example 176, rac-(2-Cyclopropyl-imidazo[5,1-b]thiazol-3-yl)-[5-(1H-indol-5-yl)-thiophen-2-yl]-methanol], the values for the IC50 in assay [1] and in assay [2] were 260 nM and greater than 10200 nM, respectively.

As to `Oc1ccc(-n2cc(C(O)c3c(C4CC4)sc4cncn34)nn2)c(F)c1` (racemic) [Example 208, rac-4-{4-[(2-Cyclopropyl-imidazo[5,1-b]thiazol-3-yl)-hydroxy-methyl]-[1,2,3]triazol-1-yl}-3-fluoro-phenol], the IC50 in assay [1] came out at 9.58 nM; in assay [2], 6400 nM.

Turning to `O=C(Nc1ccc(-n2cc(C(O)c3c(C4CC4)sc4cncn34)nn2)cc1)c1ccccc1` (racemic) [Example 189, rac-N-(4-{4-[(2-Cyclopropyl-imidazo[5,1-b]thiazol-3-yl)-hydroxy-methyl]-[1,2,3]triazol-1-yl}-phenyl)-benzamide], the IC50 was 30.6 nM in assay [1] and greater than 10200 nM in assay [2].

For the compound `CCc1sc2cncn2c1C(O)c1cn(-c2ccc(C(=O)NC3CC3)cc2)nn1` (racemic) [Example 125, rac-N-Cyclopropyl-4-{4-[(2-ethyl-imidazo[5,1-b]thiazol-3-yl)-hydroxy-methyl]-[1,2,3]triazol-1-yl}-benzamide], the IC50 in assay [1] worked out at 15 nM; in assay [2], 8710 nM.

Turning to `CCc1sc2cncn2c1C(O)c1cn(-c2ccc(S(=O)(=O)NC)cc2)nn1` (racemic) [Example 225, rac-4-{4-[(2-Ethyl-imidazo[5,1-b]thiazol-3-yl)-hydroxy-methyl]-[1,2,3]triazol-1-yl}-N-methyl-benzenesulfonamide], the IC50 in assay [1] was 47.2 nM; in assay [2], greater than 10200 nM.

Take `Oc1ccc(-n2cc(C(O)c3c(C4CC4)sc4cncn34)nn2)c(C(F)(F)F)c1` (racemic) [Example 214, rac-4-{4-[(2-Cyclopropyl-imidazo[5,1-b]thiazol-3-yl)-hydroxy-methyl]-[1,2,3]triazol-1-yl}-3-trifluoromethyl-phenol]: the IC50 is 127 nM in assay [1] and 8890 nM in assay [2].

For `O=c1[nH]c2ccc(-n3cc(C(O)c4c(C5CC5)sc5cncn45)nn3)cc2[nH]1` (racemic) [Example 194, rac-5-{4-[(2-Cyclopropyl-imidazo[5,1-b]thiazol-3-yl)-hydroxy-methyl]-[1,2,3]triazol-1-yl}-1,3-dihydro-benzoimidazol-2-one], the IC50 in assay [1] was 70.4 nM; in assay [2], greater than 10200 nM.

For `CCc1sc2cncn2c1C(O)c1cn(-c2cc(F)c(OC)cc2F)nn1` (racemic) [Example 321, rac-[1-(2,5-Difluoro-4-methoxy-phenyl)-1H-[1,2,3]triazol-4-yl]-(2-ethyl-imidazo[5,1-b]thiazol-3-yl)-methanol], the values for the IC50 in assay [1] and in assay [2] were 2.13 nM and 3680 nM, respectively.

In the case of `CCc1sc2cncn2c1C(O)c1cn(-c2ccc3c(c2)C(C)NS3(=O)=O)nn1` (stereo not shown) [Example 227, (2-Ethyl-imidazo[5,1-b]thiazol-3-yl)-[1-(3-methyl-1,1-dioxo-2,3-dihydro-1H-1I6-benzo[d]isothiazol-5-yl)-1H-[1,2,3]triazol-4-yl]-methanol], the results for the IC50 in assay [1] and in assay [2] were 77.8 nM and greater than 10200 nM, respectively.

On to `O[C@@H](c1cn(-c2ccc(OCC3CCOCC3)cc2)nn1)c1c(C2CC2)sc2cncn12` [Example 87a, (R)-(2-Cyclopropyl-imidazo[5,1-b]thiazol-3-yl)-{1-[4-(tetrahydro-pyran-4-ylmethoxy)-phenyl]-1H-[1,2,3]triazol-4-yl}-methanol], for which the figures for the IC50 in assay [1] and in assay [2] were 4.55 nM and greater than 10200 nM, respectively.

As for `O[C@@H](c1cn(-c2ccc(OCCC3(O)CC3)cc2)nn1)c1c(C2CC2)sc2cncn12` [Example 142a, 1-[2-(4-{4-[(R)-(2-Cyclopropyl-imidazo[5,1-b]thiazol-3-yl)-hydroxy-methyl]-[1,2,3]triazol-1-yl}-phenoxy)-ethyl]-cyclopropanol], the half-maximal inhibitory concentration (IC50) in assay [1] was 9.51 nM; in assay [2], greater than 10200 nM.

Take `CCOc1ncc(-n2cc(C(O)c3c(C4CC4)sc4cncn34)nn2)cc1C(F)(F)F` (racemic) [Example 76, rac-(2-Cyclopropyl-imidazo[5,1-b]thiazol-3-yl)-[1-(6-ethoxy-5-trifluoromethyl-pyridin-3-yl)-1H-[1,2,3]triazol-4-yl]-methanol]: the 50% inhibitory concentration (IC50) was 363 nM in assay [1] and greater than 10200 nM in assay [2].

On to `CCc1sc2cncn2c1C(O)c1cn(-c2ccc(C(=O)N3CCOCC3)cc2)nn1` (racemic) [Example 117, rac-(4-{4-[(2-Ethyl-imidazo[5,1-b]thiazol-3-yl)-hydroxy-methyl]-[1,2,3]triazol-1-yl}-phenyl)-morpholin-4-yl-methanone], for which the IC50 in assay [1] is 93.3 nM; in assay [2] it was greater than 10200 nM.

For the compound `OC(c1cn(-c2cccc3ccncc23)nn1)c1c(C2CC2)sc2cncn12` (racemic) [Example 22, rac-(2-Cyclopropyl-imidazo[5,1-b]thiazol-3-yl)-(1-isoquinolin-8-yl-1H-[1,2,3]triazol-4-yl)-methanol], the IC50 was 39.6 nM in assay [1] and greater than 10200 nM in assay [2].
